Experimental data published in patent publication US20170239289A1, “TREATMENT OF INFLAMMATION, RESPIRATORY TRACT INFECTIONS AND CYSTIC FIBROSIS” (Advanced Inhalation Therapies (AIT) Ltd., priority 2014, published 2017).
Where “and” joins values, the source holds several entries; their conditions need not be identical. Identical values can stand only once.

Test system: human subjects diagnosed with acute bronchiolitis
Assay: Example 3: randomized bronchiolitis study, infants 2-12 months; 160 ppm NO 30 min 5x daily up to 5 days plus O2 vs O2 alone; efficacy
Assay type: in vivo
Text: Eligible subjects were randomized (1:1) to receive intermittent NO and standard treatment with O2 (hereafter referred to as NO treatment) or standard treatment with O2 (hereafter referred to as standard treatment) alone for a treatment period of up to 5 days. During treatment, MetHb and O2 saturation levels were continuously monitored using a dedicated monitor.
In addition to standard supportive O2 treatment which was initiated prior to randomization, subjects in the NO group were given five 30 minute inhalations per day of 160 ppm NO, at intervals of 3 to 4 hours, until subject improvement led to a physician decision of fit to discharge, to a maximum of 25 inhalations over 5 consecutive days. Inhalations were administered via hospital face masks (Hospiltak, Unomedical Inc).
All subjects in the control group were managed with standard supportive O2 treatment in the same way as the active treatment group, but without actual NO administration.
Secondary Endpoints—Efficacy: • LOS in hours, measured as time from first inhalation treatment to “fit to discharge” • Time to reach 92% O2 saturation (in room air) measured as time from first inhalation treatment to first O2 saturation of 92% sustained to discharge • Time to clinical score of less than or equal to 5 measured as time from first inhalation treatment to clinical score of less than or equal to 5
The following analysis sets were defined for analysis of safety and efficacy: • Intent-to-treat (ITT): Defined as all randomized subjects who received at least one study treatment. This was the main set for analysis of efficacy and safety. • Per-Protocol (PP): Defined as all subjects in the ITT cohort who completed study treatment in compliance with the protocol (i.e., excludes all early termination subjects) and who had no major protocol violations. This was a secondary set for analysis of efficacy.
An additional set for analysis of efficacy was defined post-hoc: • Modified Intent-to-treat (mITT): Defined as all subjects in the ITT, excluding subjects who were prematurely discontinued from treatment and/or or discontinued from the study according to protocol guidelines.
Length of hospitalization stay (LOS) was calculated in hours from the first inhalation treatment to “fit to discharge” defined as physician decision to discharge.
Time to achieve O2 saturation of 92% (improvement) leading to discharge was calculated from first treatment to the first time of O2 saturation of at least 92% before discharge. Time was taken from the clinical score assessments where applicable and from subject daily chart in special circumstances.
Time to clinical score of less than or equal to 5 was calculated from first inhalation to the first time the subject reached a clinical score of less than or equal to 5.
Survival Analysis using a Kaplan-Meier survival function curve was applied for testing the statistical significance of the difference between the study groups in the following endpoints: • LOS, from first inhalation to fit to discharge • Time to achieve 92% Saturation leading to discharge • Time to achieve clinical score less than or equal to 5
The Cox model was applied for comparative analysis of Kaplan-Meier curves. The hazards ratio was estimated via the Cox's regression model.
Post-hoc subgroup analyses of subjects with a LOS less than or equal to 24 hours and greater than 24 hours were also conducted for the key post-hoc secondary endpoints. Additional exploratory analyses were also conducted on a subgroups with LOS greater than 36 hours and a subgroup of the 10 most severe subjects (i.e., longest LOS) from each treatment group. These post-hoc analyses were conducted for the following reasons: • Based on preclinical studies, the anti-viral/anti-microbial treatment effect of NO is expected to take at least 24 hours (i.e., 2.5 treatment hours). • Approximately ⅓ of subjects were discharged after less than 24 hours in hospital. […]

[1] = mITT, 10 most severe subjects from each group
[2] = mITT, LOS greater than 24 hours
[3] = mITT, LOS greater than 36 hours

## [N]=O [NO, nitric oxide]
ITT (N=42), NO vs standard treatment, 95% CI: 0.392, 1.361
  Hazard ratio, time to sustained 92% O2 saturation: 0.731
ITT (N=43), NO vs standard treatment, 95% CI: 0.378, 1.404
  Hazard ratio, time to clinical score less than or equal to 5: 0.728
ITT (N=43), NO vs standard treatment, 95% CI: 0.435, 1.518
  Hazard ratio, LOS (Kaplan-Meier/Cox): 0.812
ITT, All (N = 42)
  Time to first 92% O2 saturation sustained to discharge, Mean (SD): 35.50 (33.73) hours and 35.50 hours
  Time to first 92% O2 saturation sustained to discharge, Median: 21.08 h
ITT, All (N = 43)
  LOS, hours Mean (SD): 43.34 (32.95) hours and 43.34 hours
  LOS, hours Median: 40.03 h
  Time to Clinical Score ≦5, Mean (SD): 32.83 (30.61) hours and 32.83 hours
  Time to Clinical Score ≦5, Median: 21.08 h
ITT, LOS >24 hours (N = 27)
  LOS, hours Mean (SD): 53.27 h
  LOS, hours Median: 41.92 h
  Time to Clinical Score ≦5, Mean (SD): 39.62 h
  Time to Clinical Score ≦5, Median: 39.92 h
  Time to first 92% O2 saturation sustained to discharge, Mean (SD): 43.35 h
  Time to first 92% O2 saturation sustained to discharge, Median: 41.17 h
ITT, LOS greater than 24 hours, 95% CI: 0.161, 0.949
  Hazard ratio, time to clinical score less than or equal to 5: 0.391
ITT, LOS greater than 24 hours, 95% CI: 0.211, 1.091
  Hazard ratio, LOS (Kaplan-Meier/Cox): 0.480
ITT, LOS greater than 24 hours, 95% CI: 0.232, 1.145
  Hazard ratio, time to sustained 92% O2 saturation: 0.515
ITT, LOS ≦24 hours (N = 15)
  Time to first 92% O2 saturation sustained to discharge, Mean (SD): 15.86 h
  Time to first 92% O2 saturation sustained to discharge, Median: 16.78 h
ITT, LOS ≦24 hours (N = 16)
  LOS, hours Mean (SD): 18.52 h
  LOS, hours Median: 18.50 h
  Time to Clinical Score ≦5, Mean (SD): 15.86 h
  Time to Clinical Score ≦5, Median: 16.78 h
PP (N=38), 95% CI: 0.334, 1.302
  Hazard ratio, time to sustained 92% O2 saturation: 0.660
PP (N=39), 95% CI: 0.332, 1.324
  Hazard ratio, time to clinical score less than or equal to 5: 0.663
PP (N=39), 95% CI: 0.444, 1.688
  Hazard ratio, LOS (Kaplan-Meier/Cox): 0.866
PP, All (N = 38)
  Time to first 92% O2 saturation sustained to discharge, Mean (SD): 30.17 (21.06) hours and 30.17 hours
  Time to first 92% O2 saturation sustained to discharge, Median: 21.08 h
PP, All (N = 39)
  LOS, hours Mean (SD): 38.79 (21.52) hours and 38.79 hours
  LOS, hours Median: 40.03 h
  Time to Clinical Score ≦5, Mean (SD): 27.18 (13.17) hours and 27.18 hours
  Time to Clinical Score ≦5, Median: 21.08 h
PP, LOS >24 hours (N = 24)
  LOS, hours Mean (SD): 46.03 h
  LOS, hours Median: 41.83 h
  Time to Clinical Score ≦5, Mean (SD): 31.41 h
  Time to Clinical Score ≦5, Median: 34.92 h
  Time to first 92% O2 saturation sustained to discharge, Mean (SD): 35.47 h
  Time to first 92% O2 saturation sustained to discharge, Median: 38.98 h
PP, LOS greater than 24 hours, 95% CI: 0.093, 0.799
  Hazard ratio, time to clinical score less than or equal to 5: 0.273
PP, LOS greater than 24 hours, 95% CI: 0.139, 0.921
  Hazard ratio, time to sustained 92% O2 saturation: 0.358
PP, LOS greater than 24 hours, 95% CI: 0.164, 1.062
  Hazard ratio, LOS (Kaplan-Meier/Cox): 0.418
PP, LOS ≦24 hours (N = 14)
  Time to first 92% O2 saturation sustained to discharge, Mean (SD): 15.32 h
  Time to first 92% O2 saturation sustained to discharge, Median: 16.75 h
PP, LOS ≦24 hours (N = 15)
  LOS, hours Mean (SD): 18.50 h
  LOS, hours Median: 18.42 h
  Time to Clinical Score ≦5, Mean (SD): 15.32 h
  Time to Clinical Score ≦5, Median: 16.75 h
mITT, 10 most severe subjects (based on LOS) from each group
  median time to clinical score less than or equal to 5: 41.56 h
[1]
  median LOS: 42.14 h
  median time to 92% O2 saturation sustained to discharge: 41.59 h
[2]
  median time to clinical score less than or equal to 5: 34.92 h
  median time to first 92% O2 saturation sustained to discharge: 38.98 h
mITT, LOS greater than 24 hours (N=25)
  median LOS: 41.83 h
mITT, LOS greater than 24 hours, 95% CI: 0.081, 0.699
  Hazard ratio, time to clinical score less than or equal to 5: 0.238
mITT, LOS greater than 24 hours, 95% CI: 0.119, 0.797
  Hazard ratio, time to sustained 92% O2 saturation: 0.308
mITT, LOS greater than 24 hours, 95% CI: 0.140, 0.913
  Hazard ratio, LOS (Kaplan-Meier/Cox): 0.357
[3]
  median LOS: 41.92 h
  median time to 92% O2 saturation sustained to discharge: 41.37 h
  median time to clinical score less than or equal to 5: 41.37 h
